Measured values published in patent US20260199485A1, “RNA DEGRADERS AND USES THEREOF” (Arrakis Therapeutics, Inc., priority 2022, published 2026).

Molecular target: T1, CNOT7 (Homo sapiens, UniProt Q9UIV1)
T1 construct: biotin (biotinylated); purchased Ichor Life Sciences
Experiment: Binding of compounds to CNOT7 by surface plasmon resonance (SPR)
Settings: Table 4; dissociation constant for CNOT7
Description: Surface plasmon resonance (SPR) was used to evaluate the binding of compounds to CNOT7. Experiments were performed on a Biacore 8K (Cytiva) with a running buffer consisting of 20 mM HEPES pH7.5, 100 mM KCl, 3 mM MgCl2, 1 mM TCEP, 0.05% tween-20, 2% DMSO. Briefly, biotinylated CNOT7 (Ichor Life Sciences) at a concentration of 70 μg/ml was immobilized to a streptavidin coated chip (Cytiva sensor chip SA) for 1200 sec at a flow rate of 5 μl/min (typical immobilization level 7,500 RU). For compound binding experiments, various concentrations of analyte were flowed over the chip with 120 sec association phase, 120 sec dissociation phase, at a flow rate of 30 ul/min and collection rate of 10 Hz. Reference channel subtraction and solvent correction were applied to all sensograms prior to data analysis. Sensograms were fit to 1:1 steady state affinity model. FIGS. 3 and 4 show the binding of exemplary compounds and the AMP control (a known CNOT7 active site binder) at various concentrations to CNOT7.

T1 sequence (Q9UIV1 whole entry): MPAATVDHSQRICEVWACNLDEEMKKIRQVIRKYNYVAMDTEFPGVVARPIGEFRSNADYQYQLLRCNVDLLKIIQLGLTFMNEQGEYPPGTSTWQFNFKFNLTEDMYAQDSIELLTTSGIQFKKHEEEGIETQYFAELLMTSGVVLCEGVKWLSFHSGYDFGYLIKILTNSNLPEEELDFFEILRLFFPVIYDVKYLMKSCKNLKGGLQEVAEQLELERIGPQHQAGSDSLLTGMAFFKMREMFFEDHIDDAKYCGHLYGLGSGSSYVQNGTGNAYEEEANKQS

SMILES	Kd [µM]
Cc1c[nH]c(=O)nc1SCC(=O)N(C)Cc1ccc2c(c1)OCO2 [Compound I-6]	> 25

Same assay, conditions: Table 5; dissociation constant for CNOT7 by SPR

SMILES	Kd [µM]
COc1ccc(CNC(=O)CNc2nc(=O)[nH]cc2C)cc1 [Compound I-32]	> 25
COc1ccc(CNC(=O)C(C)Sc2nc(=O)[nH]cc2C)cc1 (stereo not shown) [Compound I-168]	1 to 25
COc1ccc(C(C)NC(=O)C2CC2c2nc(=O)[nH]cc2C)cc1 (mixture of isomers) [Compound I-240]	> 25
Cc1c[nH]c(=O)nc1SCC(=O)NCc1ccc2oc(=O)[nH]c2c1 [Compound I-51]	> 25
COc1ccc(CN(CCO)C(=O)CSc2cc(=O)[nH]cc2C)cc1 [Compound I-287]	> 25
Cc1c[nH]c(=O)nc1SCC(=O)NCc1ccc2c(c1)CC(=O)N2 [Compound I-56]	1 to 25
COCC(Sc1nc(=O)[nH]cc1C)C(=O)NCc1ccc(OC)cc1 (stereo not shown) [Compound I-169]	1 to 25
Cc1c[nH]c(=O)nc1SCC(=O)N[C@@H](c1ccc(O)cc1)C1CC1 [Compound I-219]	1 to 25
CCC(Sc1nc(=O)[nH]cc1C)C(=O)NCc1ccc(OC)cc1 (stereo not shown) [Compound I-170]	1 to 25
COc1ccc([C@@H](CO)NC(=O)CSc2nc(=O)[nH]cc2C)cc1 [Compound I-48]	1 to 25
Cc1c[nH]c(=O)cc1SCC(=O)NCc1ccc2c(c1)NC(=O)CO2 [Compound I-52]	> 25
COc1ccc(CNC(=O)CCc2nc(=O)[nH]cc2C)cc1 [Compound I-34]	1 to 25
COc1ccc([C@@H](C)NC(=O)CSc2[nH]c(=O)[nH]c(=O)c2C)cc1 [Compound I-242]	> 25
COc1ccc(C(C)(C)NC(=O)CSc2nc(=O)[nH]cc2C)cc1 [Compound I-249]	1 to 25
COc1ccc(C(C)NC(=O)C2CC2c2nc(=O)[nH]cc2C)cc1 (mixture of isomers) [Compound I-239]	> 25
COCC(Sc1nc(=O)[nH]cc1C)C(=O)NC(C)c1ccc(OC)cc1 (stereo not shown) [Compound I-266]	1 to 25

SMILES	Kd [µM]
Cc1c[nH]c(=O)nc1SCC(=O)NC(C)c1ccc(S(C)(=O)=O)cc1 (stereo not shown) [Compound I-294]	1 to 25
COc1ccc([C@@H](C)NC(=O)CSc2nc(=O)[nH]cc2C)cc1 [Compound I-247]	1 to 25
COc1ccc(CN2CCC(Sc3nc(=O)[nH]cc3C)C2=O)cc1 (stereo not shown) [Compound I-252]	> 25
COc1ccc(C(CO)NC(=O)CSc2nc(=O)[nH]cc2C)cc1 (stereo not shown) [Compound I-46]	1 to 25
COc1ccc(CNC(=O)CSc2nc(=O)[nH]cc2C)nc1 [Compound I-42]	1 to 25
COCCOCC[C@@H](Sc1nc(=O)[nH]cc1C)C(=O)NCc1ccc(OC)cc1 [Compound I-166, (2R)-4-(2-methoxyethoxy)-N-[(4-methoxyphenyl)methyl]-2-[(5-methyl-2-oxo-1H-pyrimidin-4-yl)sulfanyl]butanamide]	1 to 25
Cc1c[nH]c(=O)nc1SCC(=O)NCc1ccc2c(c1)N(C)CCO2 [Compound I-55]	> 25
COCC(Sc1nc(=O)[nH]cc1C)C(=O)NC(C)c1ccc2c(c1)CC(=O)N2 (stereo not shown) [Compound I-192]	1 to 25
Cc1c[nH]c(=O)nc1SCC(=O)NCc1ccc2c(c1)OCCO2 [Compound I-50]	1 to 25
COc1ccc2c(c1)CN(C(=O)CSc1nc(=O)[nH]cc1C)C2 [Compound I-205]	> 25
COCCOCC[C@H](Sc1nc(=O)[nH]cc1C)C(=O)NCc1ccc(OC)cc1 [Compound I-167, (2S)-4-(2-methoxyethoxy)-N-[(4-methoxyphenyl)methyl]-2-[(5-methyl-2-oxo-1H-pyrimidin-4-yl)sulfanyl]butanamide]	1 to 25
COc1ccc(C(C)NC(=O)CSc2nc(=O)[nH]cc2OC)cc1 (stereo not shown) [Compound I-230]	> 25
COc1ccc(C2(NC(=O)CSc3nc(=O)[nH]cc3C)CC2)cc1 [Compound I-197]	1 to 25
COc1ccc(CNC(=O)CSc2nc(=O)[nH]cc2C)cn1 [Compound I-43]	> 25
COCC(Sc1nc(=O)[nH]cc1C)C(=O)NC(C)c1ccc(OC)cc1 (stereo not shown) [Compound I-267]	1 to 25
COc1ccc([C@@H](C)NC(=O)CSc2nc(=O)[nH]cc2F)cc1 [Compound I-228]	1 to 25

Same assay, conditions: Table 6; dissociation constant for CNOT7 by SPR

SMILES	Kd [µM]
COc1ccc([C@@H](C)NC(=O)CSc2nc(=O)[nH]cc2Cl)cc1 [Compound I-229]	1 to 25
COc1ccc([C@](C)(CO)NC(=O)CSc2nc(=O)[nH]cc2C)cc1 [Compound I-250]	1 to 25
COCC(Sc1nc(=O)[nH]cc1Cl)C(=O)NC(C)c1ccc2c(c1)CC(=O)N2 (stereo not shown) [Compound I-323]	1 to 25
COc1cc(F)c([C@@H](C)NC(=O)CSc2nc(=O)[nH]cc2Cl)cc1F [Compound I-311]	1 to 25
Cc1c[nH]c(=O)nc1SCC(=O)NCc1ccc2c(c1)COC2 [Compound I-58]	> 25
COc1ccc([C@@H](C)NC(=O)C2(Sc3nc(=O)[nH]cc3C)CCC2)cc1 [Compound I-324]	1 to 25
COc1ccc2c(c1)CCN(C(=O)CSc1nc(=O)[nH]cc1C)[C@@H]2C [Compound I-199]	0.1 to 1
COc1c(F)cc([C@@H](C)NC(=O)CSc2nc(=O)[nH]cc2Cl)cc1F [Compound I-313]	1 to 25
COCCOC[C@@H](Sc1nc(=O)[nH]cc1C)C(=O)N[C@H](C)c1ccc(OC)cc1 [Compound I-172]	1 to 25
COc1cnc(CNC(=O)CSc2nc(=O)[nH]cc2C)cn1 [Compound I-45]	1 to 25
C#CCOCCOCCOCC(Sc1nc(=O)[nH]cc1C)C(=O)NC(C)c1ccc(OC)cc1F (stereo not shown) [Compound I-326]	1 to 25
COCCOC[C@H](Sc1nc(=O)[nH]cc1C)C(=O)N[C@H](C)c1ccc(OC)cc1 [Compound I-173]	1 to 25

Same assay, conditions: dissociation constant by SPR, Table 7

SMILES	Kd [µM]
COCC(Sc1nc(=O)[nH]cc1Cl)C(=O)NC(C)c1ccc2c(c1)CC(=O)N2 (stereo not shown) [Compound I-323]	1 to 25
COc1ccc([C@@H](C)NC(=O)C2(Sc3nc(=O)[nH]cc3C)CCC2)cc1 [Compound I-324]	0.1 to 1
COCC(Sc1nc(=O)[nH]cc1C)C(=O)NC(C)c1ccc2c(c1)CC(=O)N2 (stereo not shown) [Compound I-331]	1 to 25
C#CCOCCOCCOCC(Sc1nc(=O)[nH]cc1C)C(=O)NC(C)c1ccc(OC)cc1F (stereo not shown) [Compound I-326]	1 to 25

Second part, the compound after the results:

Kd [µM]	SMILES
> 25	COc1ccc2c(c1)C[C@H](COCCOCCOCCOCCN=[N+]=[N-])N(C(=O)CSc1nc(=O)[nH]cc1C)C2 [Compound I-487]
> 25	[N-]=[N+]=NCCOCCOCCOCC[C@@H](Sc1nc(=O)[nH]cc1Cl)C(=O)NCc1ccc2c(c1)CC(=O)N2 [Compound I-409]
> 25	COc1ccc(C(C)NC(=O)C(CCOCCOCCOCCn2cc(CCc3ccc(NC(=O)Nc4nc(CC(=O)N5CCN(C)CC5)cs4)cc3)nn2)Sc2nc(=O)[nH]cc2Cl)c(F)c1 (stereo not shown) [Compound I-384]
1 to 25	COc1ccc([C@@H](C)NC(=O)[C@H](COCCOCCOCCN=[N+]=[N-])Sc2nc(=O)[nH]cc2C)c(F)c1 [Compound I-368]
1 to 25	COCCOCCC(Sc1nc(=O)[nH]cc1C)C(=O)NCc1ccc(OC)cc1 (stereo not shown) [Compound I-443]
> 25	C#CCOCCOCCOCCOC[C@H]1Cc2cc(OC)ccc2[C@@H](C)N1C(=O)CSc1nc(=O)[nH]cc1Cl [Compound I-433]
1 to 25	COc1ccc([C@@H](C)NC(=O)[C@@H](COCCOCCOCCN=[N+]=[N-])Sc2nc(=O)[nH]cc2C)c(F)c1 [Compound I-367]
1 to 25	COC[C@@H](Sc1nc(=O)[nH]cc1C)C(=O)N[C@@H](C)c1ccc2c(c1)CC(=O)N2 [Compound I-332]
1 to 25	COc1ccc([C@@H](C)NC(=O)[C@@H](CCOCCOCCOCCN=[N+]=[N-])Sc2nc(=O)[nH]cc2Cl)c(F)c1 [Compound I-349]
1 to 25	C#CCOCCOCCOCCOC[C@H]1CN(C(=O)CSc2nc(=O)[nH]cc2Cl)[C@@H](C)c2ccc(OC)cc21 [Compound I-493]
> 25	COc1ccc(C(CN(C)C)NC(=O)CSc2nc(=O)[nH]cc2C)cc1 (stereo not shown) [Compound I-340]
1 to 25	COC[C@H](Sc1nc(=O)[nH]cc1C)C(=O)NCc1ccc2c(c1)CC(=O)N2C [Compound I-412]
1 to 25	Cc1c[nH]c(=O)nc1S[C@@H](COCCOCCOCCN=[N+]=[N-])C(=O)NCc1ccc2c(c1)CC(=O)N2 [Compound I-408]
1 to 25	COc1ccc(CNC(=O)[C@H](COCCOCCOCCN=[N+]=[N-])Sc2nc(=O)[nH]cc2C)cc1 [Compound I-404]
1 to 25	COC[C@H](Sc1nc(=O)[nH]cc1Cl)C(=O)N[C@H](C)c1ccc2c(c1)CC(=O)N2 [Compound I-334]
1 to 25	COc1ccc2c(c1)CCN(C(=O)CSc1nc(=O)[nH]cc1Cl)C2 [Compound I-431]
1 to 25	COCCOCC#CC[C@H](Sc1nc(=O)[nH]cc1C)C(=O)NCc1ccc(OC)cc1 [Compound I-502]
1 to 25	Cc1c[nH]c(=O)nc1S[C@H](COCCOCCOCCN=[N+]=[N-])C(=O)NCc1ccc2c(c1)CC(=O)N2 [Compound I-407]
1 to 25	COc1ccc2c(c1)C[C@H](COCCOCCOCCOCCN=[N+]=[N-])N(C(=O)CSc1nc(=O)[nH]cc1Cl)[C@@H]2C [Compound I-428]
1 to 25	COC[C@@H](Sc1nc(=O)[nH]cc1Cl)C(=O)N[C@H](C)c1ccc2c(c1)CC(=O)N2 [Compound I-333]
> 25	COc1ccc(CNC(=O)[C@@H](CCOCCOCCOCCN=[N+]=[N-])Sc2nc(=O)[nH]cc2Cl)c(F)c1 [Compound I-401]
> 25	COc1ccc(CNC(=O)[C@H](CCOCCOCCOCCN=[N+]=[N-])Sc2nc(=O)[nH]cc2Cl)cc1 [Compound I-400]
> 25	CC#CCNC(=O)CCC(Sc1nc(=O)[nH]cc1C)C(=O)NCc1ccc(OC)cc1 (stereo not shown) [Compound I-492]
1 to 25	COc1ccc2c(c1)C[C@H](COCCOCCOCCOCCN=[N+]=[N-])N(C(=O)CSc1nc(=O)[nH]cc1Cl)C2 [Compound I-416]
